Each structure is given as a SMILES string.

Common to all, as to assay: NCI60 one-dose screen
What all share (format): cell-based

In assay [1] the test system is A498. The following applies: Homo sapiens; A498, 10 μM; read-out: Growth percent. The method in brief: (§1)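 Single 10 μM dose across NCI60 lines in RPMI 1640 with 5% FBS; 48 h exposure at 37° C after 24 h preincubation, SRB protein stain read at 515 nm. Value is growth relative to no-drug control and time-zero cell count: 0–100 inhibition, below 0 lethality.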
In assay [2] the test system is EKVX. The following applies: Homo sapiens, read-out: Growth percent. The method in brief: as §1
Assay [3] deals with MDA-MB-435. The following applies: Homo sapiens; MDA-MB-435, 10 μM; read-out: Growth percent. The method in brief:
as §1

For assay [4], the system named is MDA-MB-468. To be noted: Homo sapiens; MDA-MB-468, 10 μM; read-out: Growth percent. In outline: as §1
For assay [5], the system named is NCI-H23. To be noted: Homo sapiens; NCI-H23, 10 μM; read-out: Growth percent. The method in brief: as §1
The subject of assay [6] is OVCAR-4. To be noted: Homo sapiens; OVCAR-4, 10 μM; read-out: Growth percent. In outline: as §1
Assay [7] concerns OVCAR-5. The following applies: Homo sapiens; OVCAR-5, 10 μM; read-out: Growth percent. In outline:
as §1

The test system of assay [8] is SF-295. To be noted: Homo sapiens; SF-295, 10 μM; read-out: Growth percent. In outline: as §1
Assay [9] deals with SK-MEL-28. To be noted: Homo sapiens; SK-MEL-28, 10 μM; read-out: Growth percent. The method in brief: as §1
In assay [10] the test system is SK-OV-3. The following applies: Homo sapiens; SK-OV-3, 10 μM; read-out: Growth percent. The method in brief:
as §1

Assay [11] relates to SW-620. To be noted: Homo sapiens; SW-620, 10 μM; read-out: Growth percent. In outline:
as §1

For assay [12], the system named is TK-10. The following applies: Homo sapiens; TK-10, 10 μM; read-out: Growth percent. The method in brief: as §1
Assay [13] concerns U251. To be noted: Homo sapiens, U-251; U251, 10 μM; read-out: Growth percent. The method in brief: as §1

Turning to `O=c1cc(-c2ccccc2)oc2cc(OCCCC[P+](c3ccccc3)(c3ccccc3)c3ccccc3)cc(O)c12` [3a], the activity at 10 µM in assay [1] was -83.3%; in assay [2], -97.6%; in assay [3], -67.5%; in assay [4] it was -84.9%; in [5], -93%; in assay [6], -69.1%. The activity at 10 µM is -97.7% in assay [7]; -96% in assay [8]; -98.5% in assay [9]; -83.4% in [10]; -81.7% in assay [11]; -81.8% in assay [12]. Also, in assay [13], the activity at 10 µM is -57.4%.

With `Cc1ccc([P+](CCCCOc2cc(O)c3c(=O)cc(-c4ccccc4)oc3c2)(c2ccc(C)cc2)c2ccc(C)cc2)cc1` [3b], the activity at 10 µM is -81.5% in [1]; -88.3% in assay [2]; -88.2% in assay [3]; -87% in [4]; -90.9% in assay [5]; -73.1% in assay [6]. Moreover, the activity at 10 µM was -80.3% in assay [7]; -91.3% in assay [8]; -85.3% in assay [9]; -75.3% in assay [10]; -68.5% in [11]; -79.3% in assay [12]. In assay [13], the activity at 10 µM was -50%.

On to `COc1ccc([P+](CCCCOc2cc(O)c3c(=O)cc(-c4ccccc4)oc3c2)(c2ccc(OC)cc2)c2ccc(OC)cc2)cc1` [3c], for which the activity at 10 µM in assay [1] was -83%; in [2] it was -70.9%; in assay [3], -89.6%; in assay [4], -77.4%; in assay [5], -77%; in [6], -74.3%. In addition, the activity at 10 µM was -59.3% in assay [7]; -73.8% in [8]; -44.5% in assay [9]; -77.7% in assay [10]; -34.8% in assay [11]; -87.1% in assay [12]. In addition, the activity at 10 µM in assay [13] is -92.6%.

As for `O=c1cc(-c2ccccc2)oc2cc(OCCCC[P+](c3ccc(F)cc3)(c3ccc(F)cc3)c3ccc(F)cc3)cc(O)c12` [3d], the activity at 10 µM was -87.6% in assay [1]; -83.9% in assay [2]; -90.8% in [3]; -85.7% in assay [4]; -93% in assay [5]; -48.1% in assay [6]. Also, the activity at 10 µM is -89.9% in [7]; -74% in assay [8]; -92% in assay [9]; -88.2% in [10]; -67.5% in assay [11]; -84.8% in [12]. In addition, the activity at 10 µM in assay [13] was -40.7%.

`O=c1cc(-c2ccccc2)oc2cc(OCCCC[P+](C3CCCCC3)(C3CCCCC3)C3CCCCC3)cc(O)c12` [3e]: the activity at 10 µM in [1] is -87.6%; in [2], -83.5%; in [3] it was -93.6%; in assay [4], -83.5%; in [5], -88.5%; in assay [6] it was -64.5%. The activity at 10 µM in assay [7] was -60.5%; in assay [8] it was -87%; in assay [9], -41.4%; in assay [10], -82.4%; in assay [11], -76.4%; in [12], -91.3%. Also, the activity at 10 µM in [13] is -95.5%.

As to `COc1c(C)cc([P+](CCCCOc2cc(O)c3c(=O)cc(-c4ccccc4)oc3c2)(c2cc(C)c(OC)c(C)c2)c2cc(C)c(OC)c(C)c2)cc1C` [3f], the activity at 10 µM in [1] was -83.4%; in assay [2] it was -76.5%; in [3], -81.9%; in assay [4], -76%; in assay [5] it was -77.3%; in assay [6] it was -65.5%. Also, the activity at 10 µM in [7] was -87.8%; in assay [8], -63.6%; in assay [9] it was -85.7%; in assay [10], -58.3%; in assay [11], -62.4%; in [12], -84.7%. Also, the activity at 10 µM in assay [13] was -76.6%.

For `Cc1ccccc1[P+](CCCCOc1cc(O)c2c(=O)cc(-c3ccccc3)oc2c1)(c1ccccc1C)c1ccccc1C` [3g], the activity at 10 µM in assay [1] was -99.1%; in assay [2] it was -98.4%; in assay [3], -98.3%; in assay [4] it was -99.4%; in assay [5], -98.4%; in [6] it was -98.7%. In addition, the activity at 10 µM is -98.7% in [8]; -98.4% in [9]; -97.9% in assay [10]; -96.4% in assay [11]; -99.3% in assay [12]; -97% in [13].

For `O=c1cc(-c2ccccc2)oc2cc(OCCCC[P+](c3ccccc3)(c3ccccc3)c3ccccn3)cc(O)c12` [3h], the activity at 10 µM in assay [1] is -94%; in assay [2] it was -93.1%; in assay [3], -80.8%; in [4], -90.7%; in [5] it was -89.3%; in assay [6], -51.2%. The activity at 10 µM was -93.4% in assay [7]; -92.7% in assay [8]; -94.7% in assay [9]; -76.5% in assay [10]; -88.3% in assay [11]; -93.3% in [12]. The activity at 10 µM in [13] was -96%.

Turning to `O=c1cc(-c2ccccc2)oc2cc(O)cc(O)c12` [compound 2, 5,7-dihydroxyflavone, reference compound], the activity at 10 µM is 86.6% in assay [1]; 89.3% in [2]; 99.5% in [3]; 91.1% in assay [4]; 92.6% in [5]; 112% in [6]. Besides, the activity at 10 µM in assay [7] turned out to be 99.1%; in assay [8], 99.9%; in assay [9] it was 102%; in assay [10] it was 128%; in [11], 102%; in assay [12], 107%. In assay [13], the activity at 10 µM came to 80.7%.

The record behind these values is publication PMC12652692, “Synthesis and In Vitro Anticancer Evaluation of Novel Phosphonium Derivatives of Chrysin” (International Journal of Molecular Sciences, 2025).
